Experimental data as given in patent publication US20260034107A1, “SUBSTITUTED FUSED IMIDAZOLE DERIVATIVES AND METHODS OF TREATING SICKLE CELL DISEASE AND RELATED COMPLICATIONS” (vTv Therapeutics LLC, priority 2019, published 2026).

How the values were obtained:
HbF [1] = experiment: Western blot analysis of HbF induction in KU812 cells; type: cell-based, human; conditions: for HbF induction by Western blot: tested concentrations 0.5-20 μM; for increased HbF (Western blot): at concentrations between 0.5 to 5 PM
Experimental: (§1) About 20-50 ug of protein is separated by SDS-polyacrylamide gel electrophoresis, and transferred to nitrocellulose membranes. Membranes are blocked in 5% dry milk containing TBS-T for 30 minutes followed by one hour and incubated with HbF or actin antibodies. After several washes, membranes are incubated with 1:10000 diluted HRP-conjugated secondary antibody (Thermo Scientific), developed with ECL Prime reagent (GE Healthcare Biosciences). Images may be captured on a Bio-Rad Chemi-Doc MP Imaging System and protein bands quantified by densitometry.
(§2) KU812, a human leukemic cell line that expresses the fetal gamma-globin and adult beta-globin genes, was used as a system for screening. […] (See Zein S, Lou R F, Sivanand S, Ramakrishnan V, Mackie A, Li W, Pace BS. KU812 Cell Line: model for identifying fetal hemoglobin inducing drugs. Exp Biol Med (Maywood) 235:1385-94, 2010.) KU812 cells were grown in Iscove's Modified Dulbecco Media (IMDM) and 10% fetal bovine serum until in log phase growth.
Western blot analysis was also conducted to determine level of induction of HbF in KU812 cells by Compounds 73, 134, 473, and 236. Hydroxyurea and hemin were used as positive controls, and ß-actin was used as a protein loading control.

KU812 cells = experiment: KU812 cell counts and viability by 0.4% Trypan blue exclusion; type: cell-based, human; conditions: 48 hours, 0.5, 2.5, 5.0 and 20 μM, widest range of drug concentrations
Experimental: as §2
KU812 cells in log growth phase were treated with compounds 73, 134, 473 and 236 (See Table A) at a doses of 0.5, 2.5, 5.0 and 20 μM for 48 hours. At harvest, cell counts and viability were measured by 0.4% Trypan blue exclusion.

HbF [2] = experiment: Flow cytometry of KU812 cells for HbF positive cells (F-cells) and MFI; type: cell-based, human; conditions: flow cytometry, 0.5, 2.5, 5, 10, and 20 μM
Experimental: (§3) About 5×10^5 cells are harvested after treatment with compound, washed twice with ice cold phosphate buffered saline and resuspended in 4% paraformaldehyde for 40 minutes at 37° C. Fixed cells are permeabilized with ice-cold acetone/methanol (4:1) and washed with phosphate buffered saline followed by incubation with FITC-conjugated anti-HbF antibody (1:1000, Abcam) for 20 minutes. The labeled cells may be analyzed using a Becton Dickerson LSR-II flow cytometer (BD Bioscience, San Jose, CA, USA) and FlowJo v0.9 software.
as §2
Flow cytometry was conducted for KU812 cells following treatment with Compounds 473 and 236 at various concentrations (0.5, 2.5, 5, 10, and 20 μM). […] Compounds 73 and 134 were not analyzed by flow cytometry.

γ-globin = γ-globin / HbF expression in sickle erythroid progenitor cells; type: cell-based; conditions: 48 hours
Experimental: as §1
About 5×10^5 cells are harvested after treatment with compound, washed twice with ice cold phosphate buffered saline and resuspended in 4% paraformaldehyde for 40 minutes at 37° C. […] The labeled cells may be analyzed using a Becton Dickerson LSR-II flow cytometer (BD Bioscience, San Jose, CA, USA) and FlowJo v0.9 software.
To test compounds under conditions more closely modeling physiological conditions for one with a SCD, sickle erythroid progenitor cells were cultured for 10 days and then treated with Compound 473 for 48 hours at concentrations of 0.5 μM and 2.5 μM. Treated cells were analyzed by western blot for levels of expression of HbF, HbS, and ß-actin relative to cells treated with DMSO, hemin, or HU. […]

HbS = experiment: Western blot of HbS protein in sickle erythroid progenitor cells; type: cell-based; conditions: 0.5 μM and 2.5 μM, 48 hours
Experimental: as §1
(§4) To test compounds under conditions more closely modeling physiological conditions for one with a SCD, sickle erythroid progenitor cells were cultured for 10 days and then treated with Compound 473 for 48 hours at concentrations of 0.5 μM and 2.5 μM. Treated cells were analyzed by western blot for levels of expression of HbF, HbS, and ß-actin relative to cells treated with DMSO, hemin, or HU. The same treated cells were also analyzed by flow cytometry for y-globin gene expression relative to cells treated with DMSO, hemin, or HU.

HbF [3] = experiment: Flow cytometry of F-cells in sickle erythroid progenitor cells; type: cell-based; conditions: 0.5 μM and 2.5 μM, 48 hours
Experimental: as §3, §4

[4] = test system: sickle erythroid progenitor cells; experiment: Anti-sickling activity in sickle erythroid progenitor cells under hypoxia; type: cell-based; conditions: 0.5 μM and 2.5 μM, 48 hours, hypoxia (1% O2 and 5% CO2)
Experimental: As described above, sickle erythroid progenitor cells were cultured for 10 days and then treated with Compound 473 for 48 hours at concentrations of 0.5 μM and 2.5 μM or with hemin (about 50 μM) or with HU (about 100 μM). Treated cells were then subjected to hypoxia conditions (1% O2 and 5% CO2).

| SMILES | HbF induction by Western blot (HbF [1]) | effects on cell growth rates (KU812 cells) | increased HbF (Western blot) (HbF [1]) | mean fluorescence intensity (MFI) (HbF [2]) | number of HbF positive cells (F-cells) (HbF [2]) | γ-globin gene expression induction (γ-globin; 0.5 μM) [fold] | γ-globin gene expression induction (γ-globin; 2.5 μM) [fold] | HbS protein levels (HbS) | F-cell levels by flow cytometry (HbF [3]) | percent of sickled cells compared to DMSO control [4] |
| --- | --- | --- | --- | --- | --- | --- | --- | --- | --- | --- |
| COCCNC(=O)c1cnc2c(c1)nc(Nc1nc3ccc(OC(F)(F)F)cc3s1)n2C [Compound 73, 3-Methyl-2-(6-trifluoromethoxy-benzothiazol-2-ylamino)-3H-imidazo[4,5-b]pyridine-6-carboxylic acid (2-methoxy-ethyl)-amide] | showed HbF induction |  |  |  |  |  |  |  |  |  |
| CN(C)C(=O)CNC(=O)c1ccc2c(c1)nc(Nc1nc3ccc(C(F)(F)F)cc3s1)n2C [Compound 134, 1-Methyl-2-(6-trifluoromethyl-benzothiazol-2-ylamino)-1H-benzimidazole-5-carboxylic acid dimethylcarbamoylmethyl-amide] | showed HbF induction | minimal effects | increased HbF |  |  |  |  |  |  |  |
| Cn1c(Nc2nc3ccc(C(F)(F)F)cc3s2)nc2cc(C(=O)NCCOCCO)ccc21 [Compound 236, 1-Methyl-2-(6-trifluoromethyl-benzothiazol-2-ylamino)-1H-benzoimidazole-5-carboxylic acid [2-(2-hydroxy-ethoxy)-ethyl]-amide] | did not show significant induction of HbF |  |  | some increase in MFI | did not significantly increase F-cells |  |  |  |  |  |
| Cn1c(Nc2nc3ccc(C(F)(F)F)cc3s2)nc2cc(C(=O)NCCOCCO)cnc21 [Compound 473, N-[2-(2-Hydroxyethoxy)ethyl]-3-methyl-2-[[6-(trifluoromethyl)-1,3-benzothiazol-2-yl]amino]imidazo[4,5-b]pyridine-6-carboxamide] | showed HbF induction | minimal effects | increased HbF | increased mean fluorescence intensity | increase in the number of HbF positive cells | 1.6 | 1.9 | without affecting HbS protein levels | Increased F-cell levels | significantly decreased the percent of sickled cells |
